This is an account of results in US8845999B2 (The Regents of the University of California, priority 2005, dated 2014).

Like-named read-outs stand apart in the source and are kept apart here.

The subject of data set [1] is Hexokinase. The data set is described as follows: Hexokinase kinetics (Bessel 1972). It is filed as biochemical.
Data set [2] has as its system T1, Hexokinase.
T1 construct: Hexokinase Ki; other: Bessel (1972); Hexokinase Vmax; D-glucose = 1; hexokinase maximum velocity lower than that for D-glucose
The data set is described as follows: Hexokinase kinetics (Bessel 1972). It is filed as biochemical. Particulars: from Table 2.

The subject of data set [3] is T1, Hexokinase. Also on record: Hexokinase Vmax: unit not given here. Particulars: Bessel (1972), cited from earlier work; for Hexokinase Vmax: D-glucose = 1.
In data set [4] the target is T2, human GLUT1 (Homo sapiens, UniProt P11166).
T2 construct: host or cells: human erythrocytes (endogenous transporter)
T2 sequence (P11166 1-492): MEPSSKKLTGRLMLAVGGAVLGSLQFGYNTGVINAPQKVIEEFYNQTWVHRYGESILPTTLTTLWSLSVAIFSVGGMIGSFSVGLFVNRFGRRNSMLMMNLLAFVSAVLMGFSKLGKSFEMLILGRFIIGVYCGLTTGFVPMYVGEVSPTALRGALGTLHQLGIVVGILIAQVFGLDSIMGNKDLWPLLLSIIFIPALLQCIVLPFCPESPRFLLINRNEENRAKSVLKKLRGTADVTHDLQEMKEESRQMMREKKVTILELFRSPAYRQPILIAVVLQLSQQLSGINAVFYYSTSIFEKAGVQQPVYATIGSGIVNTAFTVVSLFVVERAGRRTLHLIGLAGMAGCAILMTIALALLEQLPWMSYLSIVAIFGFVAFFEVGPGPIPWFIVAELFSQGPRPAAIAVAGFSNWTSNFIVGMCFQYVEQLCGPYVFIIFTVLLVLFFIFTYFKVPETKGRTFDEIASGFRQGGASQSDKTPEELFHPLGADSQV
As to conditions: cited from earlier work.

For data set [5], the system named is SGLTs. The data set is described as follows: MicroPET images of rat's brain after intravenous injection of radiofluorinated glucose derivatives. Particulars: same animal, images 50-70 min after intravenous injection, FIG. 7. The protocol:
A bolus of a radiolabeled tracer is administered to a non-human primate, rodent, or other non-human mammal, intravenously or orally, and the distribution of tracer transport activity is followed by radiographic means, e.g., PET, microPET and/or SPECT. For PET, an intravenous dose of the tracer contains ˜200 μC/Kg (body weight) methyl 4-[^18F]fluoro-4-deoxy-D-glucopyranoside dissolved in <1 ml saline. […] The identity of each organ and tissue taking up the tracer is confirmed by CT scans.
FIG. 7 presents MicroPET images of a rat's brain after injection of radiofluorinated glucose derivatives. […] These experiments were performed in the same animal at three different occasions. […] The images were acquired using a Concorde 220 microPET camera (Siemens/CTI, Knoxville, Tenn.). The animal was kept under anesthesia with 2% isoflurane in oxygen during all three experiments. Injectable solutions of all radiotracers were prepared in normal saline (0.9% NaCl).

Data set [6] has as its system SGLTs. As to the kind of experiment: Whole body PET scan of human subjects. It counts as in vivo. Particulars: normal human subject, FIGS. 4 and 5. As to the method:
For a 50-70 kg person, 10 mC of methyl 4-deoxy-4-[^18F]fluoro-D-glucopyranoside dissolved in <1 ml saline is injected intravenously, and the distribution of the tracer is followed dynamically in whole body PET scans for up to 2 hours (up to 8 scans at different time intervals). SGLT activity in organs and tissues is determined from the tracer uptake. The anatomical location of tracer uptake in both normal subjects and cancer patients is determined using CT scans.
FIGS. 4 and 5 are nonlimiting examples of 2-[^18F]-FDG and Methyl 4[^18F]-FDG scans, respectively, of the same human subject.
FIG. 6 is a nonlimiting example of a whole body PET scan of a patient with Glucose-Galactose-Malabsorption (missing functional SGLT1 in their body), after being injected with Me-[18F]-4FDG.

Data set [7] can be described thus: Preliminary microPET studies of brain uptake. Particulars: rodent.
For data set [8], the target named is T3, SGLT1 (Homo sapiens, UniProt P13866).
T3 sequence (P13866 1-664): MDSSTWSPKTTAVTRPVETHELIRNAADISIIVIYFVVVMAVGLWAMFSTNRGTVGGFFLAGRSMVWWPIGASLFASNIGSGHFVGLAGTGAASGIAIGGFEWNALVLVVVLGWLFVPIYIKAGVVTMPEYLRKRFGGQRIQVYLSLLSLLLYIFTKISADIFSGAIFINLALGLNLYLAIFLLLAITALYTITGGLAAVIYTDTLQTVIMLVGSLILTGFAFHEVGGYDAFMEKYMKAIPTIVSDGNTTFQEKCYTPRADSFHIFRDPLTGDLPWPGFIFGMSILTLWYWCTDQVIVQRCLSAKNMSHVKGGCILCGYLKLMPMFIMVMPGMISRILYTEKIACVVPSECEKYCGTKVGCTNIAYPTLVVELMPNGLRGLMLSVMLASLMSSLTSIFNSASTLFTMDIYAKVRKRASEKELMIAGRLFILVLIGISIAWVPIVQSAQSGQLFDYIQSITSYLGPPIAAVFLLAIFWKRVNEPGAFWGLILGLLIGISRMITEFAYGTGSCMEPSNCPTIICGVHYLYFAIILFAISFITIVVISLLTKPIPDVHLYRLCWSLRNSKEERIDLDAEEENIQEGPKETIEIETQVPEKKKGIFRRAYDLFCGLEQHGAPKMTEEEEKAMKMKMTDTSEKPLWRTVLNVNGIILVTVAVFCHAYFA
The data set is described as follows: Affinity for SGLT1. It counts as biochemical. An excerpt: A [^11C]-methyl-D-glucoside has been synthesized and biologically evaluated as a tracer of sodium dependent glucose transporters. […] A commentary on this paper was published in the same issue of the journal. […] In addition, three ^18F-fluoro-n-alkyl glucosides have been synthesized and evaluated as potential substrates for sodium/glucose cotransporters. […] There are limitations with these probes in that the lifetime of [^11C] is shorter than that of [^18F]
Optionally, additional information can be obtained by also administering one or more pharmacological or other agents to the animal, and monitoring the effect of the agent(s) on tracer uptake and distribution. Nonlimiting examples of suitable agents, include sodium ion, glucose, galactose, and phlorizin. […] Any therapeutic agent can also be used to evaluate its potential role and in vivo activity on SGLTs in various organs, using in vivo competitive kinetics with the radiolabeled tracer.

The test system of data set [9] is SGLT1. As to conditions: pumped into cells by SGLT1; cited from earlier work.
Substrate in data set [10]: O=C[C@H](O)[C@@H](O)[C@@H](O)[C@H](O)CO
As to the kind of experiment: Kinetics of halogenated hexose transport by human SGLT1 expressed in Xenopus laevis oocytes, electrophysiological assay. It is filed as cell-based. As to conditions: other: human SGLT1 in Xenopus laevis oocytes. The text has this:
(§1) We have expressed human SGLT1 in the Xenopus laevis oocyte expression system and measured the kinetics of halogenated hexose transport using standard electrophysiological assays (see Diez-Sampedro et al. J. Biological Chemistry, 2001, 276: 49188-49194). Table 2 presents kinetic measurements of the SGLT1 affinities of various sugars. […] “Km.” is the Michaelis-Menten constant and refers to the ability of a sugar to be a substrate for a specific enzyme or transporter. The lower the Km, the better the substrate. “Vmax” refers to the maximum velocity of transport (or enzymatic reaction). Km is the concentration of substrate at ½ Vmax. “Ki” is an inhibition constant for a specific enzyme or transporter, obtained by competitive kinetics against a known substrate.

Substrate in data set [11]: O=C[C@H](O)[C@@H](O)[C@H](O)[C@H](O)CO
Described as above. It counts as cell-based. Particulars: other: human SGLT1 in Xenopus laevis oocytes.
From the text: as §1

[12] abbreviates: Barnett et al. 1973, read-out: inhibitor constants for sugar uptakes into human erythrocytes.
The mark [13] stands for this setting: Barnett et al. (1973), read-out: GLUT1 Ki.

For `OCC1OC(O)C(O)C(F)C1O` (stereo not shown), the “substrate quality for hexokinase” value in data set [1] was “poor substrates for hexokinase”. Also, the “hexokinase affinity lower than that for D-glucose” value in data set [2] came to 400 fold. The “hexokinase maximum velocity lower than that for D-glucose” value in data set [2] turned out to be 10 fold. Further, in data set [3], the “Hexokinase Vmax” value was 0.1. The figures for the Ki in data set [3], in data set [4] (setting [12]) and in data set [4] (setting [13]) were 70 mM, around 7 mM and 7 mM, respectively.

Turning to `O=C[C@H](O)[C@@H](O)[C@@H](O)[C@H](O)CF`, the Ki in data set [4] (setting [12]) was around 7 mM.

Take `OC[C@H]1OC(F)[C@H](O)[C@@H](O)[C@@H]1O` (stereo partly drawn) [1-F-1-deoxy-D-glucose, 1-[^18F]fluoro-1-deoxy-D-glucose]: the Ki in data set [4] (setting [13]) is 15 mM.

With `OC[C@H]1OC([18F])[C@H](O)[C@@H](O)[C@@H]1O` (stereo partly drawn) [1-F-1-deoxy-D-glucose, 1-[^18F]fluoro-1-deoxy-D-glucose], in [1], the “substrate quality for hexokinase” value is “poor substrates for hexokinase”.

Take `OC[C@H]1OC(O)[C@H](F)[C@@H](O)[C@@H]1O` (stereo partly drawn) [2-F-2-deoxy-D-glucose, 2-deoxy-2-[^18F]fluoro-D-glucose]: the results for the Ki in data set [3] and in data set [4] (setting [13]) were 0.2 mM and 3.6 mM, respectively.

Regarding `OC[C@H]1OC(O)[C@H]([18F])[C@@H](O)[C@@H]1O` (stereo partly drawn) [2-F-2-deoxy-D-glucose, 2-deoxy-2-[^18F]fluoro-D-glucose], the “Hexokinase Vmax” value in data set [3] is given as 0.5. In addition, the “brain uptake / crossing of the blood-brain barrier, microPET” value in data set [5] is “cross the blood-brain barrier and accumulate in the brain”. Further, the “accumulation in the brain and elimination into the urinary bladder, PET” value in [6] was “accumulated in the brain and eliminated into the urinary bladder”.

As for `O=C[C@H](O)[C@@H](O)[C@H](F)[C@H](O)CO` [4-F-4-deoxy-D-glucose], the Ki in data set [3] is 84 mM.

With `O=C[C@H](O)[C@@H](O)[C@H]([18F])[C@H](O)CO` [4-F-4-deoxy-D-glucose], the “substrate quality for hexokinase” value in data set [1] was “poor substrates for hexokinase”. In [2], the “hexokinase affinity lower than that for D-glucose” value was determined as 400 fold and the “hexokinase maximum velocity lower than that for D-glucose” value is listed as 10 fold. In data set [3], the “Hexokinase Vmax” value is on record as 0.1. For the same molecule, in [7], the “uptake into brain, microPET” value is given as “taken up rapidly into rodent brains”.

`O=C[C@H](O)[C@@H](O)[C@H](O)[C@H](O)CF` [6-F-4-deoxy-D-glucose]: the Ki was 1.3 mM in data set [4] (setting [12]) and 1 mM in [4] (setting [13]).

Regarding `O=C[C@H](O)[C@@H](O)[C@H](O)[C@H](O)C[18F]` [6-F-4-deoxy-D-glucose], the “substrate quality for hexokinase” value in [1] is “poor substrates for hexokinase”. The “Hexokinase Vmax” value in data set [3] is reported as 0.

For `O=C[C@H](O)[C@@H](O)[C@@H](O)[C@H](O)CO` [D-galactose], the Ki in [4] (setting [13]) is 90 mM.

As to `O=C[C@H](O)[C@@H](O)[C@H](O)[C@H](O)CO` [D-glucose], in data set [3], the “Hexokinase Vmax” value was 1. Besides, the Ki is 0.2 mM in data set [3], around 7 mM in data set [4] (setting [12]) and 6 mM in data set [4] (setting [13]).

With `COC1O[C@H](CO)[C@@H](F)[C@H](O)[C@H]1O` (stereo partly drawn) [Me-4-[^18F]-FDG, methyl 4-deoxy-4-[^18F]fluoro-D-glucopyranoside], in data set [8], the Km came out at 50 µM.

As to `CO[C@H]1O[C@H](CO)[C@@H](O)[C@H](O)[C@H]1O` [alpha-methyl-D-glucopyranoside], the “concentration in cells above plasma concentrations” value in [9] is on record as at most 800 fold.

B1: human SGLT1 (Homo sapiens) (protein)
chain: T3 sequence (P13866 1-664)
notes: expressed in transfected cells; host or cells: Xenopus laevis oocytes
For the molecule B1, the Km came to 600 µM in [10] and 500 µM in data set [11].
